These results are taken from patent publication US8445691B2, “Heterocyclic thiosubstituted alkanol derivatives” (Bayer CropScience AG, priority 2010, dated 2013).

SMILES strings stand for the structures. Values joined by “and” are separate entries in the source; they are usually repeats but may differ in a detail not shown here. Identical values can stand only once.

In data set [1] the test system is Blumeria graminis f.sp. hordei. Briefly: Blumeria graminis test (barley) / protective. The class given is in vivo. Conditions: 500 ppm active ingredient, protective spray on young barley plants, evaluation 7 days after inoculation; 0% = control, 100% = no infection. The protocol:
Blumeria graminis Test (Barley)/Protective
(§1) • Solvent: 49 parts by weight of N,N-dimethylacetamide • Emulsifier: 1 part by weight of alkylaryl polyglycol ether
To produce an appropriate active ingredient formulation, 1 part by weight of active ingredient is mixed with the specified amounts of solvent and emulsifier, and the concentrate is diluted with water to the desired concentration. To test for protective activity, young plants are sprayed with the formulation of active ingredient at the stated application rate. After the spray coating has dried on, the plants are dusted with spores of Blumeria graminis f.sp. hordei. The plants are placed in a greenhouse at a temperature of about 18° C. and a relative air humidity of about 80% to promote the development of mildew pustules. Evaluation follows 7 days after the inoculation. 0% means an efficacy which corresponds to that of the control, whereas an efficacy of 100% means that no infection is observed.

Data set [2] deals with Leptosphaeria nodorum. Briefly: Leptosphaeria nodorum test (wheat) / protective. Format: in vivo. Conditions: 500 ppm active ingredient, protective spray on young wheat plants, evaluation 8 days after inoculation; 0% = control, 100% = no infection. The protocol: Leptosphaeria nodorum Test (Wheat)/Protective
as §1
To produce an appropriate active ingredient formulation, I part by weight of active ingredient is mixed with the specified amounts of solvent and emulsifier, and the concentrate is diluted with water to the desired concentration. To test for protective activity, young plants are sprayed with the formulation of active ingredient at the stated application rate. After the spray coating has dried on, the plants are sprayed with spores with a spore suspension of Leptosphaeria nodorum. The plants remain in an incubation cabin at 20° C. and 100% relative air humidity for 48 hours. The plants are placed in a greenhouse at a temperature of about 22° C. and a relative air humidity of about 80%. Evaluation follows 8 days after the inoculation. 0% means an efficacy which corresponds to that of the control, whereas an efficacy of 100% means that no infection is observed.

The subject of data set [3] is Alternaria solani. Briefly: Alternaria test (tomato) / protective. The class given is in vivo. Conditions: 500 ppm active ingredient, protective spray on young tomato plants, evaluation 7 days after inoculation; 0% = control, 100% = no infection. Here is the method:
Alternaria Test (Tomato)/Protective
(§2) • Solvent: 49 parts by weight of N,N-dimethylformamide • Emulsifier: 1 part by weight of alkylaryl polyglycol ether
To produce an appropriate active ingredient formulation, 1 part by weight of active ingredient is mixed with the specified amounts of solvent and emulsifier, and the concentrate is diluted with water to the desired concentration. To test for protective activity, young tomato plants are sprayed with the active ingredient formulation at the stated application rate. One day after the treatment, the plants are inoculated with a spore suspension of Alternaria solani and are then left to stand at 100% relative humidity and 22° C. for 24 h. Subsequently, the plants are left to stand at 96% relative air humidity and a temperature of 20° C. Evaluation follows 7 days after the […]. 0% means an efficacy which corresponds to that of the control, whereas an efficacy of 100% means that no infection is observed.

Data set [4] relates to Sphaerotheca fuliginea. As to the kind of experiment: Sphaerotheca test (cucumber) / protective. The class given is in vivo. Conditions: 500 ppm active ingredient, protective spray on young cucumber plants, evaluation 7 days after inoculation; 0% = control, 100% = no infection. Here is the method:
Sphaerotheca Test (Cucumber)/Protective
as §2
To produce an appropriate active ingredient formulation, 1 part by weight of active ingredient is mixed with the specified amounts of solvent and emulsifier, and the concentrate is diluted with water to the desired concentration. To test for protective activity, young cucumber plants are sprayed with the formulation of active ingredient at the stated application rate. 1 day after the treatment, the plants are inoculated with a spore suspension of Sphaerotheca fuliginea. The plants are then placed in a greenhouse at 70% relative air humidity and a temperature of 23° C. Evaluation follows 7 days after the inoculation. 0% means an efficacy which corresponds to that of the control, whereas an efficacy of 100% means that no infection is observed.

Data set [5] in a line: logP by reversed-phase HPLC (EEC Directive 79/831 Annex V.A8). Format: physicochemical. The note with it: method [a]: LC-MS, acidic range pH 2.7, 0.1% aqueous formic acid / acetonitrile, linear gradient 10% to 95% acetonitrile; for logP: C18 reversed phase. The protocol:
The logP values were measured in accordance with EEC Directive 79/831 Annex V.A8 by HPLC (High Performance Liquid Chromatography) using reversed-phase columns (C 18) by the following methods:
[a] The LC-MS determination in the acidic range is effected at pH 2.7 with 0.1% aqueous formic acid and acetonitrile (contains 0.1% formic acid) as eluents; linear gradient from 10% acetonitrile to 95% acetonitrile.

Take `CC(C)(C)C(O)(CSc1ccc(Br)cc1)c1cncs1` (stereo not drawn) [Compound 1, 1-[(4-bromophenyl)sulphanyl]-3,3-dimethyl-2-(1,3-thiazol-5-yl)butan-2-ol]: the figures for the efficacy in data set [1] and in data set [2] were 89% and 92%, respectively.

For the molecule `CC(C)(C)C(O)(CSc1ccc(I)cc1)c1cncs1` (stereo not drawn) [Compound 2], the results for the efficacy in data set [3] and in data set [4] were 86% and 95%, respectively.

Take `CC(CF)(CF)C(O)(CSc1ccc(Br)cc1)c1cncs1` (stereo not drawn) [Compound 3]: in data set [5] (reversed-phase C18 HPLC column), the chromatographic logP stood at 3.27. For the same molecule, the efficacy in data set [1] and in data set [2] was 100% each time.

Take `CC(C)C(O)(CSc1ccc(I)cc1)c1cncs1` (stereo not drawn) [Compound 6]: in data set [4], the efficacy came to 80%.

On to `CC(C)(C)C(O)(CSc1ccc(Cl)cc1Cl)c1cncs1` (stereo not drawn) [Compound 11], for which, in data set [5], the logP entry was “logP 3.96^[a]; [M]^+ = 361”. The efficacy in data set [3] was found to be 99%; in data set [4], 80%.

As to `CC1(C(O)(CSc2ccc(I)cc2)c2cncs2)CCCCC1` (stereo not drawn) [Compound 13], the results for the efficacy in data set [3] and in data set [4] were 99% and 89%, respectively.

For the molecule `CC(C)Oc1ccc(SCC(O)(c2cncs2)C2(C)CCCCC2)cn1` (stereo not drawn) [Compound 16], the logP result in data set [5] was “logP 4.70^[a]; [M]^+ = 393”. Moreover, the efficacy in data set [3] was found to be 94%.

On to `CC(C)(C)C(O)(CSc1ccc(Cl)cc1)Cc1cncs1` (stereo not drawn) [Compound 34], for which the efficacy in data set [3] is given as 99%.

On to `CC(C)(C)C(O)(CSc1ccc(Cl)c(Cl)c1)c1cncs1` (stereo not drawn) [Compound 38], for which, in data set [5], the logP result is “log p 4.05^[a]”. Besides, the efficacy in data set [3] is 75%; in data set [4] it was 80% and 90%.

On to `CC(C)(C)C(O)(CSc1ccc(-c2ccccc2)cc1)c1cncs1` (stereo not drawn) [Compound 44], for which, in data set [5], the logP result was “log p 4.39 ^[a]”. Also, in data set [3], the efficacy stood at 100%.

Take `CC(C)(C)C(O)(CSc1ccc(C(=O)c2ccccc2)cc1)c1cncs1` (stereo not drawn) [Compound 53]: the logP result in data set [5] was “log p 3.66^[a]”.

Turning to `CC(=O)Nc1cccc(SCC(O)(c2cncs2)C(C)(C)C)c1` (stereo not drawn) [Compound 54], the logP entry in data set [5] was “log p 2.15^[a]”.

As for `CCc1cccc(C)c1SCC(O)(c1cncs1)C(C)(C)C` (stereo not drawn) [Compound 55], the logP entry in data set [5] was “log p 4.41^[a]”.

In the case of `CCc1cccc(CC)c1SCC(O)(c1cncs1)C(C)(C)C` (stereo not drawn) [Compound 56], the logP entry in data set [5] is “log p 4.78^[a]”.

For `CC(C)(C)C(O)(CSc1ccc(C(F)(F)F)cc1)c1cncs1` (stereo not drawn) [Compound 57], the logP entry in data set [5] was “log p 3.76^[a]”. The efficacy in data set [1] is 80%; in data set [2] it was 90%; in data set [3], 100%; in data set [4] it was 80%.

Take `CC(C)(C)C(O)(CSc1cc(C(F)(F)F)cc(C(F)(F)F)c1)c1cncs1` (stereo not drawn) [Compound 58]: the logP result in data set [5] was “log p 4.37^[a]”.

In the case of `CC(C)(C)C(O)(CSc1cc(Cl)cc(Cl)c1)c1cncs1` (stereo not drawn) [Compound 59], the logP result in data set [5] is “log p 4.18^[a]”.

As for `CC(C)(C)C(O)(CSc1cccc(Cl)c1Cl)c1cncs1` (stereo not drawn) [Compound 60], in data set [5], the logP entry was “log p 3.76^[a]”. In data set [3], this molecule registered an efficacy of 94%.

In the case of `CC(C)(C)C(O)(CSc1cccc(C(F)(F)F)c1)c1cncs1` (stereo not drawn) [Compound 61], in data set [5], the logP result is “log p 3.74^[a]”.

Regarding `CC(C)(C)C(O)(CSc1cc(Cl)c(Cl)cc1Cl)c1cncs1` (stereo not drawn) [Compound 62], the logP result in data set [5] was “log p 4.41^[a]”.

As for `Cc1cccc(SCC(O)(c2cncs2)C(C)(C)C)c1` (stereo not drawn) [Compound 63], the logP result in data set [5] is “log p 3.57^[a]”.

As to `Cc1ccccc1SCC(O)(c1cncs1)C(C)(C)C` (stereo not drawn) [Compound 64], the logP result in data set [5] is “log p 3.52^[a]”.

Consider `CC(C)(C)C(O)(CSc1ccc(F)cc1)c1cncs1` (stereo not drawn) [Compound 65], for which the logP entry in data set [5] is “log p 3.21^[a]”.

As for `CC(=O)Nc1ccc(SCC(O)(c2cncs2)C(C)(C)C)cc1` (stereo not drawn) [Compound 66], in data set [5], the logP entry was “log p 2.13^[a]”.

Turning to `COC(=O)c1ccccc1SCC(O)(c1cncs1)C(C)(C)C` (stereo not drawn) [Compound 67], the logP entry in data set [5] was “log p 2.95^[a]”.

With `Cc1cc(C)cc(SCC(O)(c2cncs2)C(C)(C)C)c1` (stereo not drawn) [Compound 68], the logP entry in data set [5] is “log p 4.06^[a]”.

`CCc1ccccc1SCC(O)(c1cncs1)C(C)(C)C` (stereo not drawn) [Compound 69]: the logP entry in data set [5] was “log p 3.9^[a]”.

As to `Cc1ccc(C)c(SCC(O)(c2cncs2)C(C)(C)C)c1` (stereo not drawn) [Compound 70], the logP entry in data set [5] is “log p 3.98^[a]”.

On to `CC(C)(C)C(O)(CSc1ccccc1Cl)c1cncs1` (stereo not drawn) [Compound 71], for which the logP result in data set [5] is “log p 3.37^[a]”.

`CC(C)(C)C(O)(CSc1cccc(Cl)c1)c1cncs1` (stereo not drawn) [Compound 72]: in data set [5], the logP entry was “log p 3.59^[a]”.

Take `CC(C)(C)C(O)(CSc1ccccc1)c1cncs1` (stereo not drawn) [Compound 73]: the logP entry in data set [5] was “log p 3.8^[a]”.

As for `CC(C)(C)C(O)(CSc1cc(Cl)ccc1Cl)c1cncs1` (stereo not drawn) [Compound 74], the logP entry in data set [5] was “log p 3.83^[a]”.
